In assay [1] the test system is cap-dependent and independent translation initiation. The assay can be described thus: Translation inhibition assay (luciferase model). In kind it is biochemical. The conditions noted are these: in vitro. Here is the method:
Luciferase inhibition activity assays were performed following standard procedures described previously.[9],[10]

Assay [2] concerns HEK-293 human embryonic kidney cells. The assay can be described thus: Cytotoxicity against human embryonic kidney cells. In kind it is cell-based. The conditions noted are these: for inhibition at 20 µM: read-out: Percentage growth inhibition at 20 μM, HEK-293. The method, then:
(§1) Antiplasmodial activity was determined using a high-content imaging assay, as described previously.[10],[24] The cytotoxicity of the antiplasmodial compounds was evaluated against human embryonic kidney cells (HEK-293) following an established protocol.[10],[24] Human red blood cells for culture of P. falciparum were provided by the Australian Red Cross Blood Bank in accordance with their routine Material Transfer Agreement (MTA) for nonclinical blood product supply. These bioassay studies were approved by the Griffith University Biosafety and Human Ethics Committee (GU ref no. ESK/03/12/HREC; 03/08/11019).

Assay [3] relates to Plasmodium falciparum chloroquine-sensitive (3D7) strain. The assay can be described thus: Antiplasmodial high-content imaging assay, 3D7 strain. The format is cell-based. The following applies: for inhibition of plasmodial growth at 20 μM: 20 μM concentration, strain not specified (3D7/Dd2); for IC50: Plasmodium falciparum.
For assay [4], the system named is Plasmodium falciparum chloroquine-resistant (Dd2) strain. The assay can be described thus: Antiplasmodial high-content imaging assay, Dd2 strain. In kind it is cell-based. The method, then:
as §1

The mark [5] stands for this setting: P. falciparum Dd2 (chloroquine-resistant), read-out: IC50 Dd2.
The mark [6] stands for this setting: P. falciparum 3D7 (chloroquine-sensitive), read-out: IC50 3D7.

The structures appear in SMILES notation. Where two headings read alike, the source gives them in different places.

As for `O=c1cc(-c2ccccc2)oc2cc(O)cc(O)c12` [compound 12, 5,7-dihydroxyflavone], the translational inhibitory activity result in assay [1] is “none showed significant translational inhibitory activity”.
Regarding `O=C1C[C@@H](c2ccccc2)Oc2c(Cc3cccc(O)c3O)c(O)c(Cc3cccc(O)c3O)c(O)c21` [compound 6, 3″-hydroxygracinol], the translational inhibitory activity entry in assay [1] is “none showed significant translational inhibitory activity”.
For `COC(=O)/C=C/C(=O)C[C@H](O)COC(=O)c1ccccc1` [compound 10, 7-hydroxy-6-hydromelodienone], the inhibition (commonly the drop in the measured response relative to a control, in per cent) at 40 µM in assay [2] (HEK293, HEK-293 cells, 40 μM, read-out: Percentage growth inhibition at 40 μM, HEK-293) turned out to be 100%. Moreover, the translational inhibitory activity entry in assay [1] is given as “none showed significant translational inhibitory activity”.
`O=C1C[C@@H](c2ccccc2)Oc2cc(O)c(Cc3cccc(O)c3O)c(O)c21` [compound 4, (S)-6-(2,3-dihydroxybenzyl)-5,7-dihydroxy-2-phenylchroman-4-one]: the “inhibition of plasmodial growth at 20 μM” value in assay [3] was “inhibited plasmodial growth moderately”. Moreover, in assay [1], the translational inhibitory activity entry is on record as “none showed significant translational inhibitory activity”.
Taken in the same sequence, the figures for `O=c1cc(-c2ccccc2)oc2c(Cc3cccc(O)c3O)c(O)cc(O)c12` [compound 5, 8-(2,3-dihydroxybenzyl)-5,7-dihydroxy-2-phenyl-4H-chromen-4-one] were “inhibited plasmodial growth moderately” and “none showed significant translational inhibitory activity”.
In the case of `COc1ccc(C[C@H](N)C(=O)N[C@H]2[C@@H](O)[C@H](n3cnc4c(N(C)C)ncnc43)O[C@@H]2CO)cc1` [puromycin], the IC50 (as a rule, the concentration that gives 50% inhibition) in assay [4] (setting [5]) was 45 nM; in assay [3] (setting [6]), 23 nM; in assay [2] (HEK293, HEK-293 cells) it was 360 nM.
For the compound `C[C@H]1[C@H](OC(=O)CCC(=O)O)O[C@@H]2O[C@@]3(C)CC[C@H]4[C@H](C)CC[C@@H]1[C@@]24OO3` [artesunate], the inhibition at 20 µM in assay [2] (HEK293, HEK-293 cells) came out at 75%.
For the compound `O=C1C=C/C(=C/[C@H](O)COC(=O)c2ccccc2)O1` [compound 9, (Z)-melodorinol], the translational inhibitory activity entry in assay [1] is listed as “none showed significant translational inhibitory activity”.
As to `CCN(CC)CCCC(C)Nc1ccnc2cc(Cl)ccc12` (stereo not drawn) [chloroquine], the IC50 in assay [4] (DD2, read-out: IC50 Dd2) came out at 46 nM; in assay [3] (3D7, read-out: IC50 3D7) it was 4.5 nM. Moreover, the inhibition at 40 µM in assay [2] (HEK293, read-out: Percentage growth inhibition at 40 μM, HEK-293) was found to be 60%.
The compound `CCc1nc(N)nc(N)c1-c1ccc(Cl)cc1` [pyrimethamine] yielded an IC50 in assay [2] (HEK293, HEK-293 cells) of 4200 nM.
Consider `C[C@H]1[C@@H](O)O[C@@H]2O[C@@]3(C)CC[C@H]4[C@H](C)CC[C@@H]1[C@@]24OO3` [DHA], for which the inhibition at 20 µM in assay [2] (HEK293, HEK-293 cells) was found to be 50%.
With `COc1ccc2nc3cc(Cl)ccc3c(Nc3cc(CN4CCCC4)c(O)c(CN4CCCC4)c3)c2n1` [pyronaridine], the IC50 in assay [4] (setting [5]) was 7.5 nM; in assay [3] (setting [6]), 3.6 nM; in assay [2] (HEK293, HEK-293 cells) it was 1800 nM.

Source of the values: PMC7343278, “A Meroisoprenoid, Heptenolides, and C-Benzylated Flavonoids from Sphaerocoryne gracilis ssp. gracilis” (Journal of Natural Products, 2020).
